Results: patent publication US8232248B2, “Treatment of rheumatoid arthritis with mammal beta defensins” (Novozymes Adenium Biotech A/S, priority 2008, dated 2012)
Where no end group is shown, it is not given here.

Legend:
Type in all cases: cell-based
[1] = system: TNF production from human peripheral blood mononuclear cells (PBMC); test: TNF production from PBMC stimulated with LPS, LTA, PGN or Pam3CSK4, 24 h, Cytometric Bead Array; settings: for TNF % of control / TNF: Table 18
Description: (§1) Peripheral blood was drawn from healthy volunteers (with approval from the relevant ethical committee in Denmark). Heparinized blood was diluted 1/1 v/v with RPMI and were subjected to Ficoll density centrifugation within 2 h of drawing. Plasma was collected from the top from individual donors and was kept on ice until it was used at 2% in the culture medium (autologous culture medium). Isolated PBMC were resuspended in autologous culture medium and seeded in 96-well culture plates with 255.000 cells per well in a total of 200 μl. […] The concentrations used for stimulation were optimized on 3 different donors in initial experiments, for LPS two different concentrations were used to be sure to be on a cytokine level that is possible to modulate. In some experiments PBMC were treated with Dexamethason and Indomethacin alone and together with LPS or LTA as a control on downregulation of inflammatory cytokines. The supernatants were collected after incubation at 37° C. for 24 hours, and stored at −80° C. until cytokine measurement. Viability was measured by Alamar Blue (Biosource, DALL 1100) in all experiments and in some cases also by MTS (Promega) according to manufacturer's instruction and was in some experiments also judged by counting of the cells by a Nucleocounter.
(§2) Cytokine production in supernatants was measured by flow cytometry with a human inflammation cytometric bead array (CBA) according to manufacturer's instructions (BD) on a FACSarray flow cytometer. The following cytokines were measured: IL-8, IL-1β, IL-10, TNF, IL-12 p70, IL-6. In some experiments, cytokines were measured by ELISA kits from R&D systems (IL-10, TNF-α, IL-1β) according to the manufacturer' instruction.
(§3) All experiments were performed at least twice, with representative results shown. The data presented are expressed as mean plus/minus standard deviation (SD). […] Differences were considered significant for p<0.05.
Example 3 was carried out essentially as described in Example 2. […]

[2] = system: IL-1β production from human peripheral blood mononuclear cells (PBMC); test: IL-1β production from PBMC stimulated with LPS or LTA, 24 h, Cytometric Bead Array; settings: Table 20
Description: as §1, §2, §3

[3] = system: IL-10 production from human peripheral blood mononuclear cells (PBMC); test: IL-10 production from PBMC stimulated with LPS, LTA or PGN, 24 h, Cytometric Bead Array; settings: Table 19
Description: as §1, §2, §3

[4] = system: TNF production from mouse peripheral blood mononuclear cells (PBMC); test: TNF production from mouse PBMC, mouse inflammation CBA
Description: Mouse peripheral blood mononuclear cells were isolated from blood of ten NMRI mice. In short, heparinized blood was diluted 1/1 v/v with RPMI and subjected to Ficoll density centrifugation within 2 h of drawing. Plasma was collected from the top and discarded. Isolated PBMC were resuspended in culture medium (RPMI 1640 (Gibco, 42401) w/1% penicillin and streptomycin and 1% L-Glutamine) and seeded in 96-well culture plates with 115.500 cells per well in a total of 200 μl. […] The supernatants were collected after incubation at 37° C. for 24 hours, and stored at −80° C. until cytokine measurement.
Cytokine production in supernatants was measured by flow cytometry with a mouse inflammation cytometric bead array (CBA) according to manufacturer's instructions (BD) on a FACSarray flow cytometer.

[5] = test compound 1 μg/ml, LPS 0.6 ng/ml
[6] = test compound 1 μg/ml, LPS 20 ng/ml
[7] = test compound 10 μg/ml, LPS 0.6 ng/ml
[8] = test compound 10 μg/ml, LPS 20 ng/ml
[9] = test compound 40 μg/ml, LPS 0.6 ng/ml
[10] = test compound 40 μg/ml, LPS 20 ng/ml
[11] = test compound 1 μg/ml, Medium, non-treated 0
[12] = test compound 10 μg/ml, Medium, non-treated 0
[13] = test compound 40 μg/ml, Medium, non-treated 0

Substance: hBD1: human beta defensin 1, SEQ ID NO:1, obtained from Peptide Institute Inc. (DHYNCVSSGGQCLYSACPIFTKIQGTCYRGKAKCCK; ends and bridges not checked; cysteine pairing not given here; listed as Homo sapiens)
- TNF % of control [1, 5]: 65%
- TNF ([1]; test compound 1 μg/ml, LPS 0.6 ng/ml, non-treated 728): 474 pg/mL
- TNF % of control [1, 6]: 64%
- TNF ([1]; test compound 1 μg/ml, LPS 20 ng/ml, non-treated 2164): 1395 pg/mL
- TNF ([1]; test compound 1 μg/ml, Medium, non-treated 1): 1 pg/mL
- TNF % of control [1, 7]: 28%
- TNF ([1]; test compound 10 μg/ml, LPS 0.6 ng/ml, non-treated 728): 203 pg/mL
- TNF % of control [1, 8]: 61%
- TNF ([1]; test compound 10 μg/ml, LPS 20 ng/ml, non-treated 2164): 1311 pg/mL
- TNF ([1]; test compound 10 μg/ml, Medium, non-treated 1): 0 pg/mL
- TNF % of control [1, 9]: 13%
- TNF ([1]; test compound 40 μg/ml, LPS 0.6 ng/ml, non-treated 728): 91 pg/mL
- TNF % of control [1, 10]: 46%
- TNF ([1]; test compound 40 μg/ml, LPS 20 ng/ml, non-treated 2164): 999 pg/mL
- TNF ([1]; test compound 40 μg/ml, Medium, non-treated 1): 0 pg/mL
- IL-1β % of control [2, 5]: 69%
- IL-1β ([2]; test compound 1 μg/ml, LPS 0.6 ng/ml, non-treated 741): 512 pg/mL
- IL-1β % of control [2, 6]: 82%
- IL-1β ([2]; test compound 1 μg/ml, LPS 20 ng/ml, non-treated 2544): 2087 pg/mL
- IL-1β [2, 11]: 0 pg/mL
- IL-1β % of control [2, 7]: 54%
- IL-1β ([2]; test compound 10 μg/ml, LPS 0.6 ng/ml, non-treated 741): 401 pg/mL
- IL-1β % of control [2, 8]: 75%
- IL-1β ([2]; test compound 10 μg/ml, LPS 20 ng/ml, non-treated 2544): 1913 pg/mL
- IL-1β [2, 12]: 0 pg/mL
- IL-1β % of control [2, 9]: 41%
- IL-1β ([2]; test compound 40 μg/ml, LPS 0.6 ng/ml, non-treated 741): 302 pg/mL
- IL-1β % of control [2, 10]: 63%
- IL-1β ([2]; test compound 40 μg/ml, LPS 20 ng/ml, non-treated 2544): 1599 pg/mL
- IL-1β [2, 13]: 0 pg/mL
- IL-10 % of control [3, 5]: 108%
- IL-10 ([3]; test compound 1 μg/ml, LPS 0.6 ng/ml, non-treated 66): 71 pg/mL
- IL-10 % of control [3, 6]: 85%
- IL-10 ([3]; test compound 1 μg/ml, LPS 20 ng/ml, non-treated 111): 95 pg/mL
- IL-10 [3, 11]: 0 pg/mL
- IL-10 % of control [3, 7]: 114%
- IL-10 ([3]; test compound 10 μg/ml, LPS 0.6 ng/ml, non-treated 66): 76 pg/mL
- IL-10 % of control [3, 8]: 90%
- IL-10 ([3]; test compound 10 μg/ml, LPS 20 ng/ml, non-treated 111): 100 pg/mL
- IL-10 [3, 12]: 0 pg/mL
- IL-10 % of control [3, 9]: 104%
- IL-10 ([3]; test compound 40 μg/ml, LPS 0.6 ng/ml, non-treated 66): 69 pg/mL
- IL-10 % of control [3, 10]: 102%
- IL-10 ([3]; test compound 40 μg/ml, LPS 20 ng/ml, non-treated 111): 113 pg/mL
- IL-10 [3, 13]: 0 pg/mL

Substance: mBD3: mouse beta defensin 3, SEQ ID NO:6, prepared with the same protocol as hBD2 (KINNPVSCLRKGGRCWNRCIGNTRQIGSCGVPFLKCCKRK; ends and bridges not checked; cysteine pairing not given here; listed as Mus musculus)
- Secretion of TNF from human PBMCs ([1]; Table 23): downregulating the secretion of TNF from human PBMCs to the same extend as hBD2 and dexamethason
- TNF ([4]; mBD3 1 μg/ml, LPS 20 ng/ml, untreated 2063): 1600 pg/mL
- TNF ([4]; mBD3 1 μg/ml, Medium, untreated 578): 347 pg/mL
- TNF ([4]; mBD3 10 μg/ml, LPS 20 ng/ml, untreated 2063): 297 pg/mL
- TNF ([4]; mBD3 10 μg/ml, Medium, untreated 578): 180 pg/mL
- TNF ([4]; mBD3 100 μg/ml, LPS 20 ng/ml, untreated 2063): 195 pg/mL
- TNF ([4]; mBD3 100 μg/ml, Medium, untreated 578): 182 pg/mL
